The source of these data is patent publication US20140378408A1, “NUCLEOSIDE 5'-PHOSPHOROTHIOATE ANALOGUES AND USES THEREOF” (BAR-ILAN UNIVERSITY, an Israeli University, priority 2012, published 2014).

Molecules are shown by their SMILES. Read-outs that look alike come from different tables or passages of the source.

In assay [1] the test system is cortical neurons. Kind of assay: Neuroprotection of cultured cortical neurons exposed to FeSO4 or FeSO4/H2O2. In kind it is cell-based. The settings on record: Table 2, neuroprotection of primary neurons exposed to FeSO4, read-out: IC50. Here is the method:
FIGS. 10A-10B show the neuroprotective effect of ATP-γ-S and GDP-β-S (0.2-200 μM, t=24 h) as evaluated by MTT production in cortical neurons exposed for 24 h to either FeSO4 at final concentration of 3 μM (10A); or both FeSO4 (3 μM) and H2O2 (100 μM) (10B). The results shown are the mean±SEM of three independent experiments in quadruplicate.
Cultured cortical neurons in 96-well plates were treated with different concentrations of FeSO4, or hydrogen peroxide and FeSO4, for 24 h at 37° C. Following exposure to various insults, the cells were treated with ATP-γ-S and GDP-β-S as described. Cells were subsequently incubated for a further 18-24 h as indicated before being assessed for viability measures. Neurons were treated with ATP-γ-S and GDP-β-S at three concentrations ([…]) simultaneously with 1.5, 3 or 6 μM FeSO4 for 24 h. Following 24 h incubation in the presence of both FeSO4 and ATP-γ-S and GDP-β-S cell viability measures were assessed by XTT assay. All experiments were performed in triplicate.
FeSO4 induced a concentration-dependent decrease in cell viability as assessed by XTT assay and morphological assessment following 24 h of exposure (FIG. 9). The neuroprotective effect of ATP-γ-S and GDP-β-S (due to iron chelation) was evaluated in cortical neurons exposed to FeSO4 for 24 h (FIG. 10).

Assay [2] deals with T1, Aβ28-Cu^+ complex (Homo sapiens, UniProt P05067).
T1 construct: we first studied Aβ28, as a more soluble fragment of Aβ40; purchased Sigma-Aldrich
T1 sequence (P05067 672-699 limits assumed, one chain of several): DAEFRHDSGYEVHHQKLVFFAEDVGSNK
Kind of assay: Titration of Aβ28-Cu^+ complex by chelators monitored by 1H-NMR. The settings on record: 0.8 mM Aβ28-Cu^+, pD 7; for effect on Aβ28-Cu^+ 1H-NMR spectrum: 6 eq chelator.

Assay [3] has as its target T2, human P2Y1-R (Homo sapiens, UniProt P47900).
T2 construct: expressed in transfected cells; host or cells: 1321N1 astrocytoma cells
Kind of assay: [Ca^2+]i response of 1321N1 astrocytoma cells expressing P2Y1-R GFP. The assay is classed as cell-based. The settings on record: agonist; read-out: EC50 at the P2Y1 receptor. How it is done:
GFP constructs of human P2Y2-R, P2Y1-R and P2Y11-R were stably expressed in 1321N1 astrocytoma cells, which lack endogenous expression of P2X- and P2Y-receptors. The respective cDNA of the receptor gene was cloned into a pEGFPN1 vector and after transfection, using FuGENE 6 Transfection Reagent (Roche Molecular Biochemicals, Mannheim, Germany), cells were selected with 0.5 mg/ml G418 (geneticine; Merck Chemicals, Darmstadt, Germany) and grown in DMEM supplemented with 10% serum (FCS), 100 U/ml penicillin and 100 U/ml streptomycin at 37° C. and 5% CO2. The expression and cell membrane localization of the respective P2Y receptors was confirmed through the analysis of the GFP fluorescence. The functionality of the expressed GFP-labeled receptor in cells was verified by recording a change of [Ca^2+]i after stimulation with the appropriate receptor agonist.
1321N1 astrocytoma cells transfected with the respective plasmid for P2Y-R-GFP expression plated on coverslips (22 mm diameter) and grown to approximately 80% density, were incubated with 2 μM fura 2/AM and 0.02% pluronic acid in Na-HBS buffer (Hepes buffered saline: 145 mM NaCl, 5.4 mM KCl, 1.8 mM CaCl2, 1 mM MgCl2, 25 mM glucose, 20 mM Hepes/Tris pH 7.4) for 30 min at 37° C. The cells were superfused (1 ml/min, 37° C.) with different concentrations of nucleotide in Na-HBS buffer. The nucleotide-induced change of [Ca^2+] was monitored by detecting the fluorescence intensities with excitations at 340 nm and 380 nm. Only GFP-labeled cells were analyzed. Microsoft Excel (Microsoft Corp., Redmond, Wash., USA) and SigmaPlot (SPSS Inc., Chicago, Ill., USA) were used to derive the concentration-response curves and EC50 values from the average response amplitudes obtained in at least three independent experiments (Ecke et al., 2006; Ecke et al., 2008). Only cells with a clear GFP-signal and with the typical calcium response kinetics upon agonist pulse application were included in the data analysis. The nucleotide induced change of [Ca^2+]i was monitored by detecting the respective emission intensity of fura 2/AM at 510 nm with 340 nm and 380 nm excitations (Ubl et al., 1998). The average maximal amplitude of the responses and the respective standard errors were calculated from ratio of the fura 2/AM. The GFP-tagged P2Y receptors are suitable for pharmacological and physiological studies, as previously reported (Tulapurkar et al., 2004; Tulapurkar et al., 2006; Zylberg et al., 2007).

Assay [4] concerns the target T3, human NPP3 (Homo sapiens, UniProt O14638).
T3 construct: made in house; host or cells: COS-7 cells (transfected; protein extract / cell lysate)
T3 sequence (O14638 1-875): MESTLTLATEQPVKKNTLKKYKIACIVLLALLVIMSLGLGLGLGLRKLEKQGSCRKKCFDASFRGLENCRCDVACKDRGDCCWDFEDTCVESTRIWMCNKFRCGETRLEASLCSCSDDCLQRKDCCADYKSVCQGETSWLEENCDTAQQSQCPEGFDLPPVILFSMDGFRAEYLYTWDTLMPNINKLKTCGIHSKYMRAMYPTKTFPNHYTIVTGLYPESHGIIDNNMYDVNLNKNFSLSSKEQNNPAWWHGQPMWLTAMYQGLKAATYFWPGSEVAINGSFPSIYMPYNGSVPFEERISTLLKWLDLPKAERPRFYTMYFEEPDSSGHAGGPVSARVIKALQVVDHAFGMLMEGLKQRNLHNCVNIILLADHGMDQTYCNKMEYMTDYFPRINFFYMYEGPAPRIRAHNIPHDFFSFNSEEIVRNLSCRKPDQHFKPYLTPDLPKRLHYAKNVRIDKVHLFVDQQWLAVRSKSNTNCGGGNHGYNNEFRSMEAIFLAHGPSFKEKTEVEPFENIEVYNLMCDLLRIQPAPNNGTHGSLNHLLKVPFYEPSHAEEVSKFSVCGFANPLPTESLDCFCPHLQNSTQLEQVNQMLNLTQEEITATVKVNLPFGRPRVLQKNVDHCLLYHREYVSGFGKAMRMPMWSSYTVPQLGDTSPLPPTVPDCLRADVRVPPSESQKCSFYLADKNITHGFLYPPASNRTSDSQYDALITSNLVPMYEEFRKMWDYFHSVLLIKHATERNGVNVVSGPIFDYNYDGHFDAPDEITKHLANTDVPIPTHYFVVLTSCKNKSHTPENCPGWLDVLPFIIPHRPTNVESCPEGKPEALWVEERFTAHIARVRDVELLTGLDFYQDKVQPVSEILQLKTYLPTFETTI
Kind of assay: Inhibition of NPP3 activity. In kind it is biochemical. The settings on record: read-out: inhibition of NPP3 activity. Here is the method: Pnp-TMP hydrolyses were carried out at 37° C. in 0.2 ml of the following incubation mixture: in mM, 1 CaCl2, 130 NaCl, 5 KCl and 50 Tris, pH 8.5, with or without the analogue tested and/or substrates. Substrates and analogues were all used at the final concentration of 100 μM. […] For pnp-TMP hydrolysis, the production of para-nitro-phenol was measured at […], 15 min after the initiation of the reaction.
The samples were centrifuged for 5 min at 13,000×g. Supernatants were neutralized with 1 M KOH (Fisher Scientific, Ottawa, ON, Canada) at 4° C. and centrifuged for 5 min at 13,000×g.

Assay [5] addresses T4, human NPP1 (Homo sapiens, UniProt P22413).
T4 construct: made in house; host or cells: COS-7 cells (transfected; protein extract / cell lysate)
T4 sequence (P22413 1-925): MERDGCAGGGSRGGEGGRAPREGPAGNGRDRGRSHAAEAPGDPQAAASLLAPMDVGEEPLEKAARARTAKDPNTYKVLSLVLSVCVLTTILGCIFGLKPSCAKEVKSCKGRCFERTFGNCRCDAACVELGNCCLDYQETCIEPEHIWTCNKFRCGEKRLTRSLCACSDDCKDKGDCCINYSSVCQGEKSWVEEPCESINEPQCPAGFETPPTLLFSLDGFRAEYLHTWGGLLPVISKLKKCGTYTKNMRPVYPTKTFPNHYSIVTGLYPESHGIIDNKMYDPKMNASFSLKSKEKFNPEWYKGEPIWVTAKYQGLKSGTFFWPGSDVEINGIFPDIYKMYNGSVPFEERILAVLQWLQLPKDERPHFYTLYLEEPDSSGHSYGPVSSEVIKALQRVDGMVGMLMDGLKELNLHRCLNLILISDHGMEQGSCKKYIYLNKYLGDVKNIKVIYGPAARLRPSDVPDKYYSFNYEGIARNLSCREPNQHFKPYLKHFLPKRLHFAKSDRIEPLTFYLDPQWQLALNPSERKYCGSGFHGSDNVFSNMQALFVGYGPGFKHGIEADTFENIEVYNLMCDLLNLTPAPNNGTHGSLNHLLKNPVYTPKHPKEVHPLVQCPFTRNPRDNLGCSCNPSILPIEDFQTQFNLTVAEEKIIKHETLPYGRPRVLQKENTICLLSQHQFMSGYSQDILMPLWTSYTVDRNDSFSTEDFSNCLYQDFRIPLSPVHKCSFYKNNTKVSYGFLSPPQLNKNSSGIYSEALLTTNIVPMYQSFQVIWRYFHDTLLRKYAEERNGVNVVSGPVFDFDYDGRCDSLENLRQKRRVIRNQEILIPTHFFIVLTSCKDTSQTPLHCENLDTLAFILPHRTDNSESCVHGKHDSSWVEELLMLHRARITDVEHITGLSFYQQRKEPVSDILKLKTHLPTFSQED
Kind of assay: Inhibition of NPP1 activity. In kind it is biochemical. The following applies: Dixon and Cornish-Bowden methods.

Assay [6] can be described thus: ESR OH radical assay, Fe^2+/H2O2 Fenton system. The settings on record: N/A = minimal radical production exceeds 10%.
For assay [7], the system named is PC12 cells. Put plainly: Inhibition of Fe(II)-induced ROS formation in PC12 cells (DCFH-DA). In kind it is cell-based. The following applies: PC12 cells, FeSO4 0.16 μM, 1 h, DCFH-DA; read-out: IC50 inhibition of ROS formation. How it is done: In this study, nucleoside 5′-phosphorothioate analogues were explored as inhibitors of Fe(II)-induced oxidative stress in PC12 cells used as a neuronal model. Reduction of ROS production in PC12 cells by each one of the tested analogues was measured by DCFH-DA, a radical sensitive indicator. After DCFH-DA was removed, the tested analogue was added to the cells at a final concentration of 0.2-200 μM. Oxidation was initiated by the addition of FeSO4 (0.16 μM) to the wells. The plates were incubated for 1 h at 37° C., during which the absorbance was read by a Tecan fluorometer at 485/530 nm.

T2 sequence (P47900 whole entry): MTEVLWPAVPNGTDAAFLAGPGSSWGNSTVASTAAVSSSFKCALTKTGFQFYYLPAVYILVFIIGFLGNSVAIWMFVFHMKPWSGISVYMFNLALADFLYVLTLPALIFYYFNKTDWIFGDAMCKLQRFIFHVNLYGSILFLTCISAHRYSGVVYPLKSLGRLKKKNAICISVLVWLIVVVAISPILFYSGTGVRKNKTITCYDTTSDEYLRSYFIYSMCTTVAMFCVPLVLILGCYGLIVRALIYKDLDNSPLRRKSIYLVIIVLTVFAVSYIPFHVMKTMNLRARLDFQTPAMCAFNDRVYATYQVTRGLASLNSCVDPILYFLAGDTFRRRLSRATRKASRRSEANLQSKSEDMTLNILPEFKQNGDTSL

By IC50 is commonly meant the midpoint of a concentration-inhibition curve. Take `Nc1nc2c(ncn2[C@@H]2O[C@H](COP(=O)(O)OP(=O)(O)O)[C@@H](O)[C@H]2O)c(=O)[nH]1` [GDP, gunosine diphosphate]: the IC50 in assay [1] came to 21 ± 3.1 µM.

`O=P([O-])([O-])OP(=O)([O-])OP(=O)([O-])[O-].[Na+].[Na+].[Na+].[Na+].[Na+]` [triphosphate, sodium triphosphate]: the “effect on Aβ28-Cu^+ 1H-NMR spectrum” value in assay [2] is listed as “showed only Phe peaks reappearances without any His signals”.

Usually EC50 stands for the concentration needed to bring the measured effect to its halfway point. What is called inhibition is the drop in the measured response relative to a control, in per cent. Regarding `Nc1ncnc2c1ncn2C1OC(COP(O)(=S)OP(=O)(O)CP(=O)(O)O)C(O)C1O` (stereo not drawn) [APPCP-α-S, adenosine 5′-[Pα-thio]-β,γ-methylenetriphosphate], in assay [3], the half-maximal effective concentration (EC50) was greater than 10 µM. For the same molecule, the inhibition at 100 µM in assay [4] lay within 23 to 43%. Moreover, in assay [5], the type of inhibition result is reported as “mixed type inhibition, predominantly competitive”.

Regarding `O=C(O)CC(O)(CC(=O)O)C(=O)O` [Citrate], in assay [1] (Cortical neurone), the IC50 was 25 ± 3.3 µM.

The term IC90 denotes the concentration at which the effect reaches the 90% level. A lower IC90 goes with greater potency. In assay [6], `N[C@@H](CCC(=O)N[C@@H](CS)C(=O)NCC(=O)O)C(=O)O` [GSH, glutathione] had a 90% effect concentration (IC90) of 491 ± 5 µM.

As for `Cc1c(C)c2c(c(C)c1O)CCC(C)(C(=O)O)O2` (centres unmarked) [Trolox], in assay [1] (Cortical neurone), the IC50 is 23 ± 3.1 µM.

With `[Na+].[Na+].[Na+].[O-]P([O-])([O-])=S` [Thiophosphate, trisodiumthiophosphate], the “effect on Aβ28-Cu^+ 1H-NMR spectrum” value in assay [2] is “significant sharpening of the Aβ28 spectrum”.

In the case of `Nc1nc2c(ncn2[C@@H]2O[C@H](COP(=O)(O)OP(=O)(O)OP(=O)(O)O)[C@@H](O)[C@H]2O)c(=O)[nH]1` [GTP, guanosine triphosphate], the IC50 in assay [1] (Cortical neurone) worked out at 32 ± 2.3 µM.

For `Nc1ncnc2c1ncn2[C@@H]1O[C@H](COP(=O)(O)OP(=O)(O)O)[C@@H](O)[C@H]1O` [ADP, adenosine diphosphate], in assay [1] (Cortical neurone), the IC50 was found to be 19 ± 1.9 µM.

For the molecule `Nc1nc2c(ncn2[C@@H]2O[C@H](COP(=O)(O)OP(=O)(O)OP(O)(O)=S)[C@@H](O)[C@H]2O)c(=O)[nH]1` [GTP-γ-S, guanosine 5′-[γ-thio]triphosphate], the “equivalents at which the spectrum resembled that of pure Aβ28” value in assay [2] is recorded as 3.2 eq. Besides, the IC50 in assay [1] was found to be 0.04 ± 0.01 µM; in assay [7], 5 µM.
